Counter-ions that a name gives are not always drawn.
molecular target: T1, recombinant human baculovirus-expressed GST-tagged FASN (Homo sapiens, UniProt P49327); assay: FASN enzyme activity assay, fluorescence-based detection of CoA with CPM; assay type: biochemical; settings: 5 nM FASN, 150 μM NADPH, 10 μM acetyl-CoA, 25 μM malonyl-CoA, 90 minutes incubation; read-out: IC50 data for Compounds of Formulae I-V/V(a): Activity
T1 construct: GST
Summary of the method: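 Human GST-tagged FASN, baculovirus-expressed (5 nM), in 50 mM HEPES pH 7.5 with 150 μM NADPH, 10 μM acetyl-CoA, 25 μM malonyl-CoA, 0.5% DMSO; malonyl-CoA-started, 90 min. Released CoA detected with CPM (50 μM dilution), 30 min, fluorescence ex 390/em 530. IC50 from variable-slope sigmoidal fit of % inhibition versus log concentration.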

T1 sequence (P49327 whole entry): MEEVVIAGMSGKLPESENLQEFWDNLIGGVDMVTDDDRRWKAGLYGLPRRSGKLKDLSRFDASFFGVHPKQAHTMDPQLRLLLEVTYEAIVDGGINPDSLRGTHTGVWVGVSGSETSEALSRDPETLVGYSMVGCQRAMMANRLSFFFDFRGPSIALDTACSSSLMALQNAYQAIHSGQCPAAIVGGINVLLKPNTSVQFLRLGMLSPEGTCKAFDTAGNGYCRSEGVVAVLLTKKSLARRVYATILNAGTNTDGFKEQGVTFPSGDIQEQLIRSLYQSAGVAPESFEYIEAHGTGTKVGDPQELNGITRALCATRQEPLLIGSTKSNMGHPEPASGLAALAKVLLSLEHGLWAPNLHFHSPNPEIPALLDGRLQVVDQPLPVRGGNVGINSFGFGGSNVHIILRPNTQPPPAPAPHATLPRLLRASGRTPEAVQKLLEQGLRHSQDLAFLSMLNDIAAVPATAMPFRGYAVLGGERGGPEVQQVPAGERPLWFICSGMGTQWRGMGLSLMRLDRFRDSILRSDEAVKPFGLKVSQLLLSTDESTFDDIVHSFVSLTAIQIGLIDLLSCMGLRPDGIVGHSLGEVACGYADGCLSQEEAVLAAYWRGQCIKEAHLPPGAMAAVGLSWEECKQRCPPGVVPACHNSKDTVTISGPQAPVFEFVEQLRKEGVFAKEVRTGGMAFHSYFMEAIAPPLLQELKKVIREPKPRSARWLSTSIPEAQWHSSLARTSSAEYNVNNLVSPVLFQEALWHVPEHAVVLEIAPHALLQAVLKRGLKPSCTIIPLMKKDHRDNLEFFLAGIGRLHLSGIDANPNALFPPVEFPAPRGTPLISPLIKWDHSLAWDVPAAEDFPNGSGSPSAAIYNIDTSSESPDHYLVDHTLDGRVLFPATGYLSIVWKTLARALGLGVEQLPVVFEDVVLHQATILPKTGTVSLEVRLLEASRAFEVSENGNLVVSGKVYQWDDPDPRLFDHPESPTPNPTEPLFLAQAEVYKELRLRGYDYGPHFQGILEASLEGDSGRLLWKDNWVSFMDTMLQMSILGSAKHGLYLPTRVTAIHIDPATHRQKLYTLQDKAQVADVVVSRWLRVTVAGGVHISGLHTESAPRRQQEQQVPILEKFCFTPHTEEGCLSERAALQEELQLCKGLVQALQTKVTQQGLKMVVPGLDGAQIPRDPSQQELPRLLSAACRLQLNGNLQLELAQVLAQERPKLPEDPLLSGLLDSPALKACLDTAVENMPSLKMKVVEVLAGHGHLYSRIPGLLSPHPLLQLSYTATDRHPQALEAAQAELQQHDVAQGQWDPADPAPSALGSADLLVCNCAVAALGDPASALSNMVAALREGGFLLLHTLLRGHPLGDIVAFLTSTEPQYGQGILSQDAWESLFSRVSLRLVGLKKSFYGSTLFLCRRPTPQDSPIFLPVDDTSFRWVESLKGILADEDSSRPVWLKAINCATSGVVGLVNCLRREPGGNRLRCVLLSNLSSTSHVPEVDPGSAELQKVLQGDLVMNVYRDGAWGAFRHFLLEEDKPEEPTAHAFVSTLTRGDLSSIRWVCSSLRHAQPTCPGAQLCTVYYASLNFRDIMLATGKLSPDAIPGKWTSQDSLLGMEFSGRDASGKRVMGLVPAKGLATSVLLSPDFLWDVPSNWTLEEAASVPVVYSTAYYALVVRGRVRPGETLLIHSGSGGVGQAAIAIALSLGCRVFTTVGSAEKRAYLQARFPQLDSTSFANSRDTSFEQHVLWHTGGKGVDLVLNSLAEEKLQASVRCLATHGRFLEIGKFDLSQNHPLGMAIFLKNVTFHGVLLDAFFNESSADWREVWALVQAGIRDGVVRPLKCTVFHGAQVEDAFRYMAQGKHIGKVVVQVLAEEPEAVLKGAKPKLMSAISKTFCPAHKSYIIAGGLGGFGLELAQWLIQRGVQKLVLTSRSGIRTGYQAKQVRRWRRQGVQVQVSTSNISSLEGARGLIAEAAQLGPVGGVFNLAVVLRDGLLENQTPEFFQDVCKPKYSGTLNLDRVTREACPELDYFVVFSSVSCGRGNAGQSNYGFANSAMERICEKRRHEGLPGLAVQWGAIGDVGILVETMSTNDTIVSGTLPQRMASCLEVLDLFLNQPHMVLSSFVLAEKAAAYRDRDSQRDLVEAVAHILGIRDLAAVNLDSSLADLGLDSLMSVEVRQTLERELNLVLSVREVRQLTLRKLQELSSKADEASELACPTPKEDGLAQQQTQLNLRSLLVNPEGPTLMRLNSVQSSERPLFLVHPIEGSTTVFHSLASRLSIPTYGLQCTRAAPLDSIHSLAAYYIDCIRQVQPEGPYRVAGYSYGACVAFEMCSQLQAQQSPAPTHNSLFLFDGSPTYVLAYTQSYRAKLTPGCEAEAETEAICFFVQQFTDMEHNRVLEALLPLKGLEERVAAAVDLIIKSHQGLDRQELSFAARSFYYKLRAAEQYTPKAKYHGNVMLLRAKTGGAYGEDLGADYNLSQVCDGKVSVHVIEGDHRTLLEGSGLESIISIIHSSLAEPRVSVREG

| IC50 [nM] | SMILES |
| --- | --- |
| 100 to 999 | CN(C)c1nccc2cc(-c3ccc(OC4CCN(C(=O)[C@H]5CCCO5)CC4)cc3)ccc12 [Example 453, {4-[4-(1-Dimethylaminoisoquinolin-6-yl)-phenoxy]-piperidin-1-yl}-(R)-tetrahyrofuran-2-yl methananone, HCl] |
| 1 to 99 | Nc1nccc2cc(-c3ccc(OC4CCN(C(=O)[C@H]5CCCO5)CC4)cc3)ccc12 [Example 454, {4-[4-(1-Aminoisoquinolin-6-yl)-phenoxy]-piperidin-1-yl}-(R)-tetrahydro-furan-2-yl-methanone] |
| 1000 to 10000 | CN1CCN(c2nccc3cc(-c4ccc(OC5CCN(C(=O)[C@H]6CCCO6)CC5)cc4)ccc23)CC1 [Example 455] |
| 1 to 99 | CNc1nccc2cc(-c3ccc(OC4CCN(C(=O)[C@H]5CCCO5)CC4)cc3)ccc12 [Example 456, {4-[4-(1-Methylaminoisoquinolin-6-yl)-phenoxy]-piperidin-1-yl}-(R)-tetrahydrofuran-2-yl-methanone] |
| 100 to 999 | CCC(=O)N1CCC(Oc2ccc(-c3cnc4cccc(C)c4c3)cc2)CC1 [Example 460, 1-{4-[4-(5-Methylquinolin-3-yl)-phenoxy]-piperidin-1-yl}-propan-1-one, HCl] |
| 1 to 99 | Cc1cccc2ncc(-c3ccc(OC4CCN(C(=O)[C@H]5CCCO5)CC4)cc3)cc12 [Example 462, {4-[4-(5-Methylquinolin-3-yl)-phenoxy]-piperidin-1-yl}-(R)-tetrahydro-furan-2-yl-methanone, HCl] |
| 1000 to 10000 | CCC(=O)N1CCC(Oc2ccc(-c3cnc4cccc(OC)c4c3)cc2)CC1 [Example 463, 1-{4-[4-(5-Methoxyquinolin-3-yl)-phenoxy]-piperidin-1-yl}-propan-1-one, HCl] |
| 100 to 999 | COc1cccc2ncc(-c3ccc(OC4CCN(C(=O)[C@H]5CCCO5)CC4)cc3)cc12 [Example 465, {4-[4-(5-Methoxyquinolin-3-yl)-phenoxy]-piperidin-1-yl}-(R)-tetrahydro-furan-2-yl-methanone, HCl] |
| 1 to 99 | O=C(C1CC1)N1CCC(Oc2ccc(-c3ccc4cnccc4c3)cc2)CC1 [Example 466, Cyclopropyl-[4-(4-isoquinolin-6-yl-phenoxy)-piperidin-1-yl]-methanone] |
| 1 to 99 | Cc1c(-c2ccc(OC3CCN(C(=O)[C@H]4CCCO4)CC3)cc2)ccc2cnccc12 [Example 468, {4-[4-(5-Methylisoquinolin-6-yl)-phenoxy]-piperidin-1-yl}-(R)-tetrahydro-furan-2-yl-methanone, HCl] |
| 100 to 999 | CCC(=O)N1CCC(Oc2ccc(-c3ccc4c(C)ncc(C)c4c3)cc2)CC1 [Example 469, 1-[4-[4-(1,4-Dimethyl-6-isoquinolyl)phenoxy]-1-piperidyl]propan-1-one, HCl] |
| 100 to 999 | Cc1cnc(C)c2ccc(-c3ccc(OC4CCN(C(=O)C5CC5)CC4)cc3)cc12 [Example 470, Cyclopropyl-[4-[4-(1,4-dimethyl-6-isoquinolyl)phenoxy]-1-piperidyl]methanone, HCl] |
| 100 to 999 | CCC(=O)N1CCC(Oc2ccc(-c3ccc4c(C)nccc4c3C)cc2)CC1 [Example 472, 1-[4-[4-(1,5-Dimethyl-6-isoquinolyl)phenoxy]-1-piperidyl]propan-1-one HCl] |
| 1 to 99 | CCc1cc2cc(-c3ccc(OC4CCN(C(=O)[C@H]5CCCO5)CC4)cc3)ccc2cn1 [Example 476, {4-[4-(3-Ethylisoquinolin-6-yl)-phenoxy]-piperidin-1-yl}-(R)-tetrahydro-furan-2-yl-methanone] |
| 1 to 99 | Cc1nccc2cc(-c3ccc(OC4CCN(C(=O)C5CC5)CC4)cc3)ccc12 [Example 481, Cyclopropyl-{4-[4-(1-methylisoquinolin-6-yl)-phenoxy]-piperidin-1-yl}-methanone] |
| 1 to 99 | CCC(=O)N1CCC(Oc2ccc(-c3cnc4ccc(C)cc4c3)cc2)CC1 [Example 483, 1-{4-[4-(6-Methylquinolin-3-yl)-phenoxy]-piperidin-1-yl}-propan-1-one, HCl] |
| 1 to 99 | Cc1ccc2ncc(-c3ccc(OC4CCN(C(=O)[C@H]5CCCO5)CC4)cc3)cc2c1 [Example 485, {4-[4-(6-Methylquinolin-3-yl)-phenoxy]-piperidin-1-yl}-(R)-tetrahydro-furan-2-yl-methanone, HCl] |
| 1 to 99 | Cc1cccc2cc(-c3ccc(OC4CCN(C(=O)C5CC5)CC4)cc3)cnc12 [Example 487, Cyclopropyl-{4-[4-(8-methylquinolin-3-yl)-phenoxy]-piperidin-1-yl}-methanone] |
| 1000 to 10000 | CC(C)(C)OC(=O)N1CCC(Oc2ccc(-c3ccc(C#N)cc3)cc2)CC1 [Example 490, 4-(4′-Cyano-biphenyl-4-yloxy)-piperidine-1-carboxylic acid t-butyl ester] |
| 100 to 999 | CCC(=O)N1CCC(Oc2ccc(-c3ccc(OC)c(OC)c3)cc2)CC1 [Example 491, 1-[4-(3′,4′-Dimethoxy-biphenyl-4-yloxy)-piperidin-1-yl]-propan-1-one] |
| 1000 to 10000 | COc1ccc(-c2ccc(OC3CCN(C(=O)C(C)C)CC3)cc2)cc1OC [Example 492, 1-[4-(3′,4′-Dimethoxybiphenyl-4-yloxy)-piperidin-1-yl]-2-methyl-propan-1-one] |
| 1000 to 10000 | CCC(=O)N1CCC(Oc2ccc(-c3ccc(C#N)cc3)cc2)CC1 [Example 493, 4′-(1-Propionyl-piperidin-4-yloxy)-biphenyl-4-carbonitrile] |

The next lines start with the molecule.

| SMILES | IC50 [nM] |
| --- | --- |
| Cc1cncc2cc(-c3ccc(OC4CCN(C(=O)[C@H]5CCCO5)CC4)cc3)ccc12 [Example 459, {4-[4-(4-Methylisoquinolin-6-yl)-phenoxy]-piperidin-1-yl}-(R)-tetrahydrofuran-2-yl-methanone, HCl] | 1 to 99 |
| Cc1cccc2ncc(-c3ccc(OC4CCN(C(=O)C5CC5)CC4)cc3)cc12 [Example 461, Cyclopropyl-{4-[4-(5-methyl-quinolin-3-yl)-phenoxy]-piperidin-1-yl}-methanone, HCl] | 100 to 999 |
| COc1cccc2ncc(-c3ccc(OC4CCN(C(=O)C5CC5)CC4)cc3)cc12 [Example 464, Cyclopropyl-{4-[4-(5-methoxyquinolin-3-yl)-phenoxy]-piperidin-1-yl}-methanone] | 1000 to 10000 |
| O=C([C@H]1CCCO1)N1CCC(Oc2ccc(-c3ccc4cnccc4c3)cc2)CC1 [Example 467, [4-[4-(6-Isoquinolyl)phenoxy]-1-piperidyl]-[(2R)-tetrahydrofuran-2-yl]-methanone HCl] | 1 to 99 |
| Cc1cnc(C)c2ccc(-c3ccc(OC4CCN(C(=O)[C@H]5CCCO5)CC4)cc3)cc12 [Example 471, [4-[4-(1,4-Dimethyl-6-isoquinolyl)phenoxy]-1-piperidyl]-[(2R)-tetrahydrofuran-2-yl]methanone, HCl] | 1 to 99 |
| Cc1nccc2c(C)c(-c3ccc(OC4CCN(C(=O)C5CC5)CC4)cc3)ccc12 [Example 473, Cyclopropyl-[4-[4-(1,5-dimethyl-6-isoquinolyl)phenoxy]-1-piperidyl]methanone HCl] | 100 to 999 |
| Cc1nccc2c(C)c(-c3ccc(OC4CCN(C(=O)[C@H]5CCCO5)CC4)cc3)ccc12 [Example 474, [4-[4-(1,5-Dimethyl-6-isoquinolyl)phenoxy]-1-piperidyl]-[(2R)-tetrahydrofuran-2-yl]methanone, HCl] | 1 to 99 |
| O=C([C@H]1CCCO1)N1CCC(Oc2ccc(-c3ccc4cccnc4c3C3CC3)cc2)CC1 [Example 475, [4-[4-(8-Cyclopropyl-7-quinolyl)phenoxy]-1-piperidyl]-[(2R)-tetrahydrofuran-2-yl]methanone, HCl] | 1 to 99 |
| O=C(C1CC1)N1CCC(Oc2ccc(-c3cnc4cc(F)ccc4c3)cc2)CC1 [Example 477, Cyclopropyl-{4-[4-(7-fluoroquinolin-3-yl)-phenoxy]-piperidin-1-yl}-methanone] | 1 to 99 |
| CCC(=O)N1CCC(Oc2ccc(-c3cnc4cc(F)ccc4c3)cc2)CC1 [Example 478, 1-{4-[4-(7-Fluoroquinolin-3-yl)-phenoxy]-piperidin-1-yl}-propan-1-one] | 1 to 99 |
| O=C([C@H]1CCCO1)N1CCC(Oc2ccc(-c3cnc4cc(F)ccc4c3)cc2)CC1 [Example 479, {4-[4-(7-Fluoroquinolin-3-yl)-phenoxy]-piperidin-1-yl}-(R)-tetrahydro-furan-2-yl-methanone] | 1 to 99 |
| O=C([C@H]1CCCO1)N1CCC(Oc2ccc(-c3ccc4cnc(C5CC5)cc4c3)cc2)CC1 [Example 480, {4-[4-(3-Cyclopropylisoquinolin-6-yl)-phenoxy]-piperidin-1-yl}-(R)-tetra-hy drofuran-2-yl-methanone] | 1 to 99 |
| Cc1ccc2cc(-c3ccc(OC4CCN(C(=O)[C@H]5CCCO5)CC4)cc3)cnc2c1 [Example 482] | 1 to 99 |
| Cc1ccc2ncc(-c3ccc(OC4CCN(C(=O)C5CC5)CC4)cc3)cc2c1 [Example 484, Cyclopropyl-{4-[4-(6-methylquinolin-3-yl)-phenoxy]-piperidin-1-yl}-methanone, HCl] | 100 to 999 |
| CCC(=O)N1CCC(Oc2ccc(-c3cnc4c(C)cccc4c3)cc2)CC1 [Example 486, 1-{4-[4-(8-Methylquinolin-3-yl)-phenoxy]-piperidin-1-yl}-propan-1-one, HCl] | 1 to 99 |
| Cc1cccc2cc(-c3ccc(OC4CCN(C(=O)[C@H]5CCCO5)CC4)cc3)cnc12 [Example 488, {4-[4-(8-Methylquinolin-3-yl)-phenoxy]-piperidin-1-yl}-(R)-tetrahydro-furan-2-yl-methanone] | 1 to 99 |
| COc1ccc(-c2ccc(OC3CCN(C(=O)OC(C)(C)C)CC3)cc2)cc1OC [Example 489, 4-(3′,4′-Dimethoxybiphenyl-4-yloxy)-piperidine-1-carboxylic acid t-butyl ester] | 1000 to 10000 |
| CC(C)C(=O)N1CCC(Oc2ccc(-c3ccc(C#N)cc3)cc2)CC1 [Example 494, 4′-(1-Isobutyrylpiperidin-4-yloxy)-biphenyl-4-carbonitrile] | 1000 to 10000 |

Reference: patent US9902696B2, “1,4-substituted piperidine derivatives” (Cephalon, Inc., priority 2015, dated 2018)
